Article PMC10531517, “Rational Design of Novel Peptidomimetics against Influenza A Virus: Biological and Computational Studies” (International Journal of Molecular Sciences, 2023)
Where a SMILES comes first, the peptide text is derived from it. [ ]: non-standard residue; d: D form. NMeH = CN[C@@H](Cc1c[nH]cn1)C(=O)O; Gly(N-CH2CH2OH) = O=C(O)CNCCO; NMeL = CN[C@@H](CC(C)C)C(=O)O

Test system: A/Parma/24/09 H1N1 virus
Conditions: for EC50: read-out: EC50 (concentration that reduced cytopathic effect by 50%)

Compound | SI (ratio of CC50 and EC50) | EC50 [nM]
CC(=O)N[C@@H](CO)C(=O)N(C)[C@@H](CC(C)C)C(=O)N[C@@H](CC(=O)O)C(=O)N[C@@H](CS)C(N)=O [Peptide 4, S(N-Me)LDC] (Ac-S[NMeL]DC-NH2) | >2.9 × 10^5 | 0.085
CC(=O)N[C@@H](CO)C(=O)N[C@@H](CCCCN)C(=O)N(C)[C@@H](Cc1c[nH]cn1)C(=O)N[C@@H](CO)C(N)=O [Peptide 9, SK(N-Me)HS] (Ac-SK[NMeH]S-NH2) | >1.78 × 10^3 | 0.143
CC(=O)N[C@@H](CO)C(=O)N[C@@H](CCCCN)C(=O)N[C@@H](Cc1c[nH]cn1)C(=O)N(CCO)CC(N)=O [Peptide 18, SKHNhS] (Ac-SKH[Gly(N-CH2CH2OH)]-NH2) | >5 × 10^5 | 0.05
